Laboratory results taken from patent publication US11332439B2, “Anthocyanin complex synthesized from date palm leaf extract” (UNITED ARAB EMIRATES UNIVERSITY, priority 2020, dated 2022).

Experiment: Antioxidant activity using DPPH as a free radical (Brand-Williams method)
Format: biochemical
Settings: for antiradical power (ARP): ARP=I/EC50, larger ARP indicates a more efficient antioxidant; for time to reach steady state in reaction with DPPH*: reaction kinetics, absorbance at 515 nm, methanol
Description: Antioxidant activity of the co-pigmented anthocyanin complex was assessed using DPPH as a free radical according to the Brand-Williams method. Activity of the co-pigmented anthocyanin complex was compared with two known antioxidants, ascorbic acid and Trolox. Concentrations tested are expressed as moles of antioxidant per mole DPPH. Briefly, an antioxidant solution in methanol (0.1 ml) was added to 3.9 ml of a 6×10^−5 mol/L methanol DPPH* solution. The decrease in absorbance was determined at 515 nm at 0 min, 1 min, and every 15 min until the reaction reached a plateau. The extract initial DPPH* concentration (CDPPH) in the reaction medium was calculated from a calibration curve with the equation Abs515 nm=0.0765×(CDPPH)+0.1118 as determined by linear regression (R2=0.9994). For each antioxidant concentration tested, the reaction kinetics were plotted (see FIGS. 6A-6C). From these graphs, the percentage of DPPH* remaining at the steady state was determined, and the values were transferred onto another graph showing percentage of residual DPPH* at the steady state as a function of the molar ratio of antioxidant to DPPH*. Antiradical activity was defined as the amount of antioxidant necessary to decrease the initial DPPH* concentration by 50% (Efficient Concentration=EC50 (mol/L)). The results were analyzed in terms of antiradical power (ARP), with a larger ARP indicating a more efficient antioxidant (ARP=I/EC50 AO/(mol/L) DPPH*).

SMILES	antiradical power (ARP)	time to reach steady state in reaction with DPPH*
Cc1c(C)c2c(c(C)c1O)CCC(C)(C(=O)O)O2 (stereo not shown) [Trolox]	4.65	less than a minute
O=C1O[C@H]([C@@H](O)CO)C(O)=C1O [ascorbic acid]	0.329	approximately 30 minutes
